Assay results: patent publication US20250313533A1, “QUINOLINE CARBOXYLIC ACID ESTER COMPOUND AND PREPARATION METHOD AND USE THEREOF” (priority 2019, published 2025)

Legend:
[1] = tested on: indoor potted cucumber seedlings; assay: Effect of improving growth and development of crops; assay type: in vivo; design: Rate of growth rate increase (%): concentration or dose not given beside the values; settings: versus blank control; for Rate of chlorophyll content increase (%) / Rate of leaf area increase (%): 14 days after application; for Rate of growth rate increase (%): plant height 14 days after application; for Rate of leaf area increase (%): second leaf
Procedure: Taking indoor potted cucumber seedlings as an example, the influence of the compound disclosed herein on growth rate of plant height, chlorophyll content, leaf area, etc. of crops was mainly evaluated.
The plant heights of plants before application and 14 days after the application were measured.
The growth rates were calculated according to formula (1)
The rates of the growth rate increase (%) were calculated according to formula (2)
The longitudinal and transverse diameters (i.e., leaf length and leaf width, respectively, wherein the leaf length is the distance from the base to the tip of a leaf, and leaf width is the measured value of the upper shoulder width of the leaf) of the second leaf of plants before application and 14 days after the application were measured.
The leaf areas were calculated according to formula (3)
The leaf area increases were calculated according to formula (4)
The rates of the leaf area increases were calculated according to formula (5)
The chlorophyll contents of leaves were measured by using a chlorophyll measuring instrument (model: SPAD-520 Plus).
The chlorophyll content increases were calculated according to formula (6)
The rates of the chlorophyll content increases were calculated according to formula (7)

[2] = tested on: fruit blotch in watermelons; assay: whole plant or invertebrate; settings: read-out: efficacy against fruit blotch in watermelons
[3] = tested on: pathogenic bacteria causing bacterial wilt in tobacco; assay: whole plant or invertebrate; assay type: cell-based, ralstonia; settings: read-out: inhibitory rate
black shank in potatoes = assay: Living crops in vivo protective activity, potatoes (root irrigation); settings: Solanum tuberosum, read-out: efficacy against black shank in potatoes; for pest or weed control at 5 ppm: dosage 5 ppm; for pest or weed control at 10 ppm: dosage 10 ppm
Procedure: Root irrigation was carried out on the potatoes for tests according to the designed concentration of the agents. The dosage for each plant was 200 mL and was kept consistent (also for the control). The black shank bacteria were inoculated on the second day after the application. The results were investigated according to the disease condition.

[4] = tested on: pathogenic bacteria causing black rot in Chinese cabbages; assay: In vitro bactericidal activity, black rot in Chinese cabbages; assay type: cell-based, xanthomonas; settings: Xanthomonas, read-out: inhibitory rate; for inhibition at 1 ppm: dosage 1 ppm; for inhibition at 5 ppm: dosage 5 ppm
[5] = tested on: pathogenic bacteria causing bacterial angular leaf spot in cucumbers; assay: In vitro bactericidal activity, bacterial angular leaf spot in cucumbers; assay type: cell-based, pseudomonas; settings: read-out: inhibitory rate; for inhibition at 1 ppm: dosage 1 ppm; for inhibition at 5 ppm: dosage 5 ppm
[6] = tested on: pathogenic bacteria causing stem rot in sweet potatoes; assay: In vitro bactericidal activity, stem rot in sweet potatoes; assay type: cell-based, dikia; settings: read-out: inhibitory rate; for inhibition at 1 ppm: dosage 1 ppm; for inhibition at 5 ppm: dosage 5 ppm
[7] = tested on: soft rot in Chinese cabbages; assay: whole plant or invertebrate; settings: 48 h, read-out: efficacy against soft rot in Chinese cabbages
[8] = tested on: pathogenic bacteria causing black shank in potatoes; assay: In vitro bactericidal activity, black shank in potatoes; assay type: cell-based; settings: read-out: inhibitory rate; for inhibition at 1 ppm: dosage 1 ppm; for inhibition at 5 ppm: dosage 5 ppm
bacterial blight in rice = assay: whole plant or invertebrate; settings: Oryza sativa, read-out: efficacy against bacterial blight in rice
cucumber seedlings = assay: Safety for plant growth after application; assay type: in vivo; settings: dosage 200 ppm
Summary of the method: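 Potted cucumber seedlings grown indoors; read-outs: plant-height growth rate, chlorophyll content, leaf area.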

[9] = tested on: stem rot in sweet potatoes; assay: whole plant or invertebrate; settings: read-out: efficacy against stem rot in sweet potatoes
[10] = tested on: bacterial wilt in tobacco; assay: whole plant or invertebrate; settings: Nicotiana tabacum, read-out: efficacy against bacterial wilt in tobacco
[11] = tested on: pathogenic bacteria causing fire blight in pears; assay: In vitro bactericidal activity, fire blight in pears; assay type: cell-based, erwinia; settings: Erwinia, read-out: inhibitory rate; for inhibition at 1 ppm: dosage 1 ppm; for inhibition at 5 ppm: dosage 5 ppm
[12] = tested on: pathogenic bacteria causing bacterial wilt in cassava; assay: organism not typed; assay type: cell-based; settings: read-out: inhibitory rate
[13] = tested on: pathogenic bacteria causing fruit blotch in watermelons; assay: In vitro bactericidal activity, fruit blotch in watermelons; assay type: cell-based, acidovorax; settings: read-out: inhibitory rate; for inhibition at 1 ppm: dosage 1 ppm; for inhibition at 5 ppm: dosage 5 ppm
[14] = tested on: pathogenic bacteria causing bacterial blight in rice; assay: whole plant or invertebrate; assay type: cell-based, xanthomonas; settings: read-out: inhibitory rate

| Compound | Rate of chlorophyll content increase (%) [1] [%] | Rate of growth rate increase (%) [1] [%] | Rate of leaf area increase (%) [1] [%] | pest or weed control at 5 ppm [2] [%] | pest or weed control at 10 ppm [2] [%] | inhibition at 1 ppm [3] [%] | inhibition at 5 ppm [3] [%] | pest or weed control at 5 ppm (black shank in potatoes) [%] | pest or weed control at 10 ppm (black shank in potatoes) [%] | inhibition at 1 ppm [4] [%] | inhibition at 5 ppm [4] [%] | inhibition at 1 ppm [5] [%] | inhibition at 5 ppm [5] [%] | inhibition at 1 ppm [6] [%] | inhibition at 5 ppm [6] [%] | pest or weed control at 5 ppm [7] [%] | pest or weed control at 10 ppm [7] [%] | inhibition at 1 ppm [8] [%] | inhibition at 5 ppm [8] [%] | pest or weed control at 5 ppm (bacterial blight in rice) [%] | further results |
| --- | --- | --- | --- | --- | --- | --- | --- | --- | --- | --- | --- | --- | --- | --- | --- | --- | --- | --- | --- | --- | --- |
| O=C(OCCO)c1cn(C2CC2)c2cc(Cl)c(F)cc2c1=O [Compound 151, 2-hydroxyethyl-7-chloro-1-cyclopropyl-6-fluoro-4-oxo-1,4-dihydroquinoline-3-carboxylate] | 15 | 12 | 16 | ≥ 90 | ≥ 90 | ≥ 90 | ≥ 90 | ≥ 90 | ≥ 90 | ≥ 90 | ≥ 90 | ≥ 90 | ≥ 90 | ≥ 90 | ≥ 90 | ≥ 90 | ≥ 90 | ≥ 90 | ≥ 90 | ≥ 90 | pest or weed control at 10 ppm (bacterial blight in rice): ≥ 90%; safety for plant growth (discoloration, necrosis, wilt, malformation) (cucumber seedlings): safe for plant growth; pest or weed control at 5 ppm [9]: ≥ 90%; pest or weed control at 10 ppm [9]: ≥ 90%; pest or weed control at 5 ppm [10]: ≥ 90%; pest or weed control at 10 ppm [10]: ≥ 90%; inhibition at 1 ppm [11]: ≥ 90%; inhibition at 5 ppm [11]: ≥ 90%; inhibition at 1 ppm [12]: ≥ 90%; inhibition at 5 ppm [12]: ≥ 90%; inhibition at 1 ppm [13]: ≥ 90%; inhibition at 5 ppm [13]: ≥ 90%; inhibition at 1 ppm [14]: ≥ 90%; inhibition at 5 ppm [14]: ≥ 90% |
| CCOCCOC(=O)c1cn(C2CC2)c2cc(Cl)c(F)cc2c1=O [Compound 153] | 14 | 15 | 13 | ≥ 90 | ≥ 90 | ≥ 90 | ≥ 90 | ≥ 90 | ≥ 90 | ≥ 90 | ≥ 90 | ≥ 90 | ≥ 90 | ≥ 90 | ≥ 90 | ≥ 90 | ≥ 90 | ≥ 90 | ≥ 90 | ≥ 90 | pest or weed control at 10 ppm (bacterial blight in rice): ≥ 90%; safety for plant growth (discoloration, necrosis, wilt, malformation) (cucumber seedlings): safe for plant growth; pest or weed control at 5 ppm [9]: ≥ 90%; pest or weed control at 10 ppm [9]: ≥ 90%; pest or weed control at 5 ppm [10]: ≥ 90%; pest or weed control at 10 ppm [10]: ≥ 90%; inhibition at 1 ppm [11]: ≥ 90%; inhibition at 5 ppm [11]: ≥ 90%; inhibition at 1 ppm [12]: ≥ 90%; inhibition at 5 ppm [12]: ≥ 90%; inhibition at 1 ppm [13]: ≥ 90%; inhibition at 5 ppm [13]: ≥ 90%; inhibition at 1 ppm [14]: ≥ 90%; inhibition at 5 ppm [14]: ≥ 90% |
| O=C(OCCCO)c1cn(C2CC2)c2cc(Cl)c(F)cc2c1=O [Compound 164, 3-hydroxypropyl 7-chloro-1-cyclopropyl-6-fluoro-4-oxo-1,4-dihydroquinoline-3-carboxylate] | 19 | 12 | 16 | ≥ 90 | ≥ 90 | ≥ 90 | ≥ 90 | ≥ 90 | ≥ 90 | ≥ 90 | ≥ 90 | ≥ 90 | ≥ 90 | ≥ 90 | ≥ 90 | ≥ 90 | ≥ 90 | ≥ 90 | ≥ 90 | ≥ 90 | pest or weed control at 10 ppm (bacterial blight in rice): ≥ 90%; safety for plant growth (discoloration, necrosis, wilt, malformation) (cucumber seedlings): safe for plant growth; pest or weed control at 5 ppm [9]: ≥ 90%; pest or weed control at 10 ppm [9]: ≥ 90%; pest or weed control at 5 ppm [10]: ≥ 90%; pest or weed control at 10 ppm [10]: ≥ 90%; inhibition at 1 ppm [11]: ≥ 90%; inhibition at 5 ppm [11]: ≥ 90%; inhibition at 1 ppm [12]: ≥ 90%; inhibition at 5 ppm [12]: ≥ 90%; inhibition at 1 ppm [13]: ≥ 90%; inhibition at 5 ppm [13]: ≥ 90%; inhibition at 1 ppm [14]: ≥ 90%; inhibition at 5 ppm [14]: ≥ 90% |
| COCCCOC(=O)c1cn(C2CC2)c2cc(Cl)c(F)cc2c1=O [Compound 165, 3-methoxypropyl 7-chloro-1-cyclopropyl-6-fluoro-4-oxo-1,4-dihydroquinoline-3-carboxylate] | 16 | 12 | 17 | ≥ 90 | ≥ 90 | ≥ 90 | ≥ 90 | ≥ 90 | ≥ 90 | ≥ 90 | ≥ 90 | ≥ 90 | ≥ 90 | ≥ 90 | ≥ 90 | ≥ 90 | ≥ 90 | ≥ 90 | ≥ 90 | ≥ 90 | pest or weed control at 10 ppm (bacterial blight in rice): ≥ 90%; safety for plant growth (discoloration, necrosis, wilt, malformation) (cucumber seedlings): safe for plant growth; pest or weed control at 5 ppm [9]: ≥ 90%; pest or weed control at 10 ppm [9]: ≥ 90%; pest or weed control at 5 ppm [10]: ≥ 90%; pest or weed control at 10 ppm [10]: ≥ 90%; inhibition at 1 ppm [11]: ≥ 90%; inhibition at 5 ppm [11]: ≥ 90%; inhibition at 1 ppm [12]: ≥ 90%; inhibition at 5 ppm [12]: ≥ 90%; inhibition at 1 ppm [13]: ≥ 90%; inhibition at 5 ppm [13]: ≥ 90%; inhibition at 1 ppm [14]: ≥ 90%; inhibition at 5 ppm [14]: ≥ 90% |
| COCCCCOC(=O)c1cn(C2CC2)c2cc(Cl)c(F)cc2c1=O [Compound 178] | 15 | 9 | 9 | ≥ 90 | ≥ 90 | ≥ 90 | ≥ 90 | ≥ 80 | ≥ 90 | ≥ 90 | ≥ 90 | ≥ 90 | ≥ 90 | ≥ 90 | ≥ 90 | ≥ 90 | ≥ 90 | ≥ 80 | ≥ 90 | ≥ 90 | pest or weed control at 10 ppm (bacterial blight in rice): ≥ 90%; safety for plant growth (discoloration, necrosis, wilt, malformation) (cucumber seedlings): safe for plant growth; pest or weed control at 5 ppm [9]: ≥ 90%; pest or weed control at 10 ppm [9]: ≥ 90%; pest or weed control at 5 ppm [10]: ≥ 90%; pest or weed control at 10 ppm [10]: ≥ 90%; inhibition at 1 ppm [11]: ≥ 90%; inhibition at 5 ppm [11]: ≥ 90%; inhibition at 1 ppm [12]: ≥ 90%; inhibition at 5 ppm [12]: ≥ 90%; inhibition at 1 ppm [13]: ≥ 90%; inhibition at 5 ppm [13]: ≥ 90%; inhibition at 1 ppm [14]: ≥ 90%; inhibition at 5 ppm [14]: ≥ 90% |
